In the test the test system is P388 leukemia ip, CD2F1 mice, survival T/C. Nature of the test: NCI In Vivo Anticancer Drug Screen. Data for tumor model P388 Leukemia (intraperitoneal) in CD2F1 (CDF1) mice. To be noted: endpoint: median survival time, higher = longer survival. The gist of the method:
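Mice carrying the transplanted tumor received test compound or vehicle. Survival was recorded in each group, and the value is the treated-group measurement divided by that of the vehicle-treated control group.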

[1] abbreviates: dose: 50.0 mg/kg/injection, schedule: Q01DX005 (ip), vehicle: Klucel (hydroxypropylcellulose) (HPC).
[2] abbreviates: dose: 100.0 mg/kg/injection, schedule: Q01DX005 (ip), vehicle: Klucel (hydroxypropylcellulose) (HPC).
Setting [3] is: dose: 25.0 mg/kg/injection, schedule: Q01DX009 (ip), vehicle: distilled water + Tween-80.
The mark [4] stands for this setting: dose: 50.0 mg/kg/injection, schedule: Q01DX009 (ip), vehicle: distilled water + Tween-80.
Setting [5] is: dose: 100.0 mg/kg/injection, schedule: Q01DX009 (ip), vehicle: distilled water + Tween-80.
The mark [6] stands for this setting: dose: 25.0 mg/kg/injection, schedule: Q01DX005 (ip), vehicle: saline with Tween-80.
The mark [7] stands for this setting: dose: 50.0 mg/kg/injection, schedule: Q01DX005 (ip), vehicle: saline with Tween-80.
[8] abbreviates: dose: 200.0 mg/kg/injection, schedule: Q01DX005 (ip), vehicle: Klucel (hydroxypropylcellulose) (HPC).

Values joined by “and” are separate entries in the source; they are usually repeats but may differ in a detail not shown here. Equal values may be shown once. Inconclusive results and toxic doses are left out.

For the molecule `[CH3][Sn]([CH3])([O]C(=O)c1ccccc1)[O]C(=O)c1ccccc1`, the T/C reads like this: under setting [1], 107 % of control; under setting [2], 108 % of control.
As to `O=Cc1cccc[n+]1Cc1ccc2c(c1)OCO2`, the T/C was 100 % of control under setting [3] and 100 % of control under setting [4].
Consider `CC(=O)NCCc1nc(-c2nc(C(=O)O)cs2)cs1`, for which the T/C is 102 % of control (dose: 12.5 mg/kg/injection, schedule: Q01DX009 (ip), vehicle: distilled water + Tween-80); 100 % of control under setting [3]; 102 % of control under setting [4]; 100 % of control under setting [5].
Turning to `S=C=NP1(N=C=S)=NP(N=C=S)(N=C=S)=NP(N=C=S)(N=C=S)=NP(N=C=S)(N=C=S)=N1` (centres undefined), the T/C (dose: 12.5 mg/kg/injection, schedule: Q01DX005 (ip), vehicle: saline with Tween-80) was 100 % of control; the T/C under setting [6] was 99 % of control; the T/C under setting [7] was 104 % of control and 109 % of control; the T/C (dose: 100.0 mg/kg/injection, schedule: Q01DX005 (ip), vehicle: saline with Tween-80) is 114 % of control.
Regarding `Cc1nnc2cc1CCCCCCCCC2`, the T/C was 108 % of control under setting [1], 107 % of control under setting [2] and 103 % of control under setting [8].
As to `N#Cc1c(-c2ccc(F)cc2)c(-c2ccc(F)cc2)nn(CCO)c1=O`, the T/C runs as follows: (dose: 12.5 mg/kg/injection, schedule: Q04DX002 (ip), vehicle: distilled water + Tween-80) 98 % of control; (dose: 25.0 mg/kg/injection, schedule: Q04DX002 (ip), vehicle: distilled water + Tween-80) 101 % of control and 108 % of control and 112 % of control; (dose: 50.0 mg/kg/injection, schedule: Q01DX005 (ip), vehicle: distilled water + Tween-80) 117 % of control; (dose: 100.0 mg/kg/injection, schedule: Q04DX002 (ip), vehicle: distilled water + Tween-80) 121 % of control and 166 % of control and 201 % of control; (dose: 200.0 mg/kg/injection, schedule: Q01DX005 (ip), vehicle: distilled water + Tween-80) 155 % of control; (dose: 200.0 mg/kg/injection, schedule: Q04DX002 (ip), vehicle: distilled water + Tween-80) 150 % of control. For the same molecule, the T/C (dose: 400.0 mg/kg/injection, schedule: Q01DX005 (ip), vehicle: distilled water + Tween-80) is 238 % of control.
Turning to `C=C1CCN(c2cccc(Cl)c2)C1=O`, the T/C (dose: 4.0 mg/kg/injection, schedule: Q01DX009 (ip), vehicle: saline + alcohol) was 96 % of control; the T/C (dose: 8.0 mg/kg/injection, schedule: Q01DX009 (ip), vehicle: saline + alcohol) was 101 % of control; the T/C (dose: 16.0 mg/kg/injection, schedule: Q01DX009 (ip), vehicle: saline + alcohol) is 100 % of control; the T/C (dose: 32.0 mg/kg/injection, schedule: Q01DX009 (ip), vehicle: saline + alcohol) is 105 % of control; the T/C (dose: 64.0 mg/kg/injection, schedule: Q01DX009 (ip), vehicle: saline + alcohol) was 100 % of control.
For `Cn1c(=O)c2[nH]c([N+](=O)[O-])nc2n(C)c1=O`, the T/C was 96 % of control (dose: 100.0 mg/kg/injection, schedule: Q04DX003 (ip), vehicle: saline); 100 % of control (dose: 200.0 mg/kg/injection, schedule: Q04DX003 (ip), vehicle: saline); 100 % of control (dose: 400.0 mg/kg/injection, schedule: Q04DX003 (ip), vehicle: saline).
Regarding `O=C(c1ccccc1)C1C(=O)c2ccccc2C1=O`, the T/C is, setting by setting: (dose: 60.0 mg/kg/injection, schedule: Q01DX005 (ip), vehicle: saline) 95 % of control; (dose: 120.0 mg/kg/injection, schedule: Q01DX005 (ip), vehicle: saline) 99 % of control; (dose: 240.0 mg/kg/injection, schedule: Q01DX005 (ip), vehicle: saline) 95 % of control.
On to `CN=C(Nc1ccccn1)c1ccc(NC(=O)c2ccc(C(=O)Nc3ccc(C(=NC)Nc4ccccn4)cc3)cc2)cc1`, for which the T/C under setting [1] is 107 % of control and the T/C under setting [2] is 110 % of control.
On to `CC/C=C\C/C=C\C/C=C\CCCCCCCC(=O)O`, for which the T/C was 92 % of control (dose: 40.0 mg/kg/injection, schedule: Q01DX009 (ip), vehicle: Klucel (hydroxypropylcellulose) (HPC)); 100 % of control (dose: 80.0 mg/kg/injection, schedule: Q01DX009 (ip), vehicle: Klucel (hydroxypropylcellulose) (HPC)); 98 % of control (dose: 160.0 mg/kg/injection, schedule: Q01DX009 (ip), vehicle: Klucel (hydroxypropylcellulose) (HPC)); 95 % of control (dose: 320.0 mg/kg/injection, schedule: Q01DX009 (ip), vehicle: Klucel (hydroxypropylcellulose) (HPC)).
Regarding `O=C1c2ccccc2C(=Nc2ccccc2)c2c1c(O)n(-c1ccccc1)c2O`, the T/C is 97 % of control under setting [1], 91 % of control under setting [2] and 96 % of control under setting [8].
Turning to `CN(C)c1ccc(N=Nc2ccccc2)cc1`, the T/C runs as follows: (dose: 31.25 mg/kg/injection, schedule: Q01DX009 (ip), vehicle: saline with Tween-80) 100 % of control; (dose: 62.5 mg/kg/injection, schedule: Q01DX009 (ip), vehicle: saline with Tween-80) 109 % of control.
For `O=C(/N=C1\N=Nc2nc(C(C(=O)c3cccc([N+](=O)[O-])c3Cl)c3nc4n(c3O)/C(=N/C(=O)Nc3ccc(Cl)cc3)N=N4)c(O)n21)Nc1ccc(Cl)cc1` (centres undefined), the T/C reads like this: (dose: 60.0 mg/kg/injection, schedule: Q01DX005 (ip), vehicle: saline with Tween-80) 99 % of control; (dose: 120.0 mg/kg/injection, schedule: Q01DX005 (ip), vehicle: saline with Tween-80) 100 % of control; (dose: 240.0 mg/kg/injection, schedule: Q01DX005 (ip), vehicle: saline with Tween-80) 97 % of control.
For `O=C(/C(=C(/[O-])C(F)(F)F)[n+]1ccc2ccccc2c1)C(F)(F)F`, the T/C is 100 % of control (dose: 100.0 mg/kg/injection, schedule: Q01DX001 (ip), vehicle: saline with Tween-80); 100 % of control and 112 % of control (dose: 200.0 mg/kg/injection, schedule: Q01DX001 (ip), vehicle: saline with Tween-80); 104 % of control and 97 % of control (dose: 400.0 mg/kg/injection, schedule: Q01DX001 (ip), vehicle: saline with Tween-80).
In the case of `O=C(c1ccco1)C(O)NC(=S)c1ccc(Cl)cc1` (centres undefined), the T/C (dose: 50.0 mg/kg/injection, schedule: Q01DX009 (ip), vehicle: saline with Tween-80) is 113 % of control and 117 % of control; the T/C (dose: 100.0 mg/kg/injection, schedule: Q01DX009 (ip), vehicle: saline with Tween-80) is 116 % of control.
In the case of `CC1CCC(C)N(C)C1` (centres undefined), the T/C is 98 % of control under setting [6] and 102 % of control under setting [7].
In the case of `CC(=O)Oc1ccccc1C(=O)OCC(=O)c1ccc2c(c1)Nc1ccccc1S2`, the T/C is, setting by setting: (dose: 1.56 mg/kg/injection, schedule: Q01DX001 (ip), vehicle: Klucel (hydroxypropylcellulose) (HPC)) 93 % of control; (dose: 3.13 mg/kg/injection, schedule: Q01DX001 (ip), vehicle: Klucel (hydroxypropylcellulose) (HPC)) 95 % of control; (dose: 6.25 mg/kg/injection, schedule: Q01DX001 (ip), vehicle: Klucel (hydroxypropylcellulose) (HPC)) 90 % of control; (dose: 50.0 mg/kg/injection, schedule: Q01DX001 (ip), vehicle: Klucel (hydroxypropylcellulose) (HPC)) 87 % of control; (dose: 200.0 mg/kg/injection, schedule: Q01DX001 (ip), vehicle: Klucel (hydroxypropylcellulose) (HPC)) 94 % of control.
In the case of `CCOC(=O)N1CCC(n2nncc2OCC)CC1`, the T/C is 102 % of control (dose: 100.0 mg/kg/injection, schedule: Q04DX002 (ip), vehicle: Klucel (hydroxypropylcellulose) (HPC)); 102 % of control (dose: 200.0 mg/kg/injection, schedule: Q04DX002 (ip), vehicle: Klucel (hydroxypropylcellulose) (HPC)); 105 % of control (dose: 400.0 mg/kg/injection, schedule: Q04DX002 (ip), vehicle: Klucel (hydroxypropylcellulose) (HPC)).
`CCOC(=O)c1cc(OC(C)=O)c2ccc(OC)c(OC)c2c1`: the T/C is, setting by setting: (dose: 6.25 mg/kg/injection, schedule: Q01DX009 (ip), vehicle: distilled water + Tween-80) 101 % of control and 105 % of control and 90 % of control; under setting [4], 91 % of control and 93 % of control and 97 % of control; under setting [5], 91 % of control; (dose: 200.0 mg/kg/injection, schedule: Q01DX009 (ip), vehicle: distilled water + Tween-80) 93 % of control.
With `CCn1cc(C(=O)O)c(=O)c2cc3c(cc21)OCO3`, the T/C runs as follows: (dose: 60.0 mg/kg/injection, schedule: Q01DX005 (ip), vehicle: Klucel (hydroxypropylcellulose) (HPC)) 100 % of control; (dose: 120.0 mg/kg/injection, schedule: Q01DX005 (ip), vehicle: Klucel (hydroxypropylcellulose) (HPC)) 103 % of control; (dose: 240.0 mg/kg/injection, schedule: Q01DX005 (ip), vehicle: Klucel (hydroxypropylcellulose) (HPC)) 100 % of control.

(Values after PubChem BioAssay AID330 (DTP/NCI, 2004).)
